Assays:
Assay type in all cases: cell-based
[1] = tested on: human oral cancer cells OECM-1; assay: Apoptotic DNA breaks, TUNEL assay by flow cytometry; details: 50 μM, 24 h
Procedure: (§1) Human oral cancer cell line OECM-1 cells were incubated for 24 h with ginsenoside M1 (10˜20 μg/ml), 50 μM cistaplatin (CDDP) or vehicle (0.1% DMSO). (FIG. 3A) The apoptotic DNA breaks was assayed by terminal deoxynucleotidyl transferase dUTP nick end labeling (TUNEL) assay using flow cytometry. (FIG. 3B) The cell cycle distribution was determined by PI staining using flow cytometry. (FIG. 3C) The apoptosis level was measured by PI/Annexin V double staining assay using flow cytometry. (FIG. 3D) The activation levels of caspase-9 and caspase-3 were measured by detecting the degradation of pro-caspase-9 and pro-caspase-3 using Western blotting. […] (One-way ANOVA with Dunnett's multiple comparisons test).
(§2) To gain further insight into the mode of action of ginsenoside M1, three assays targeting hallmarks of apoptosis, namely (1) the apoptotic DNA breaks assayed by terminal deoxynucleotidyl transferase dUTP nick end labeling (TUNEL) assay, (2) the cell cycle assayed by flow cytometry after propidium iodide (PI)-staining nuclei, (3) the PI/Annexin V double staining assay, and (4) caspase activation were performed. Plate 1×10^6 human oral cancer cells OECM-1 per 6-cm dish in 2 ml of culture medium and were grown overnight at 37° C. in a 5% CO2 incubator. The cells were incubated for 24 h with ginsenoside M1 (10˜20 μg/ml), 50 μM cistaplatin (CDDP) or vehicle. Each group contains a final DMSO concentration of 0.1%. Thereafter, three assays were performed. […] The cells in sub-G1 phase increased after treatment with ginsenoside M1 and CDDP. (FIG. 3B). […] The data were expressed as mean±SD; n=3. ** and *** indicate a significant difference at the level of p<0.01 and p<0.001, respectively, compared to vehicle-control cells. (One-way ANOVA with Dunnett's multiple comparisons test).

[2] = tested on: human oral cancer cells OECM-1; assay: Cell cycle distribution, PI staining by flow cytometry; details: 50 μM, 24 h
Procedure: as §1, §2

[3] = tested on: human oral cancer cells OECM-1; assay: PI/Annexin V double staining assay by flow cytometry; details: 50 μM, 24 h
Procedure: as §1, §2

[4] = tested on: human oral cancer cells SAS; assay: Viability of human oral cancer SAS cells, Trypan blue exclusion; details: 5˜20 μg/ml, 24 h
Procedure: (§3) Human oral cancer cell line SAS cells (FIG. 1A) or OECM-1 cells (FIG. 1B) were incubated for 24 h with ginsenoside M1 (5˜20 μg/ml), ginsenoside Rh2 (5˜20 μg/ml) or vehicle (0.1% DMSO). The live cell numbers were counted by Trypan blue exclusion method. The data were expressed as mean±SD; n=3. *, ** and *** indicate a significant difference at the level of p<0.05, p<0.01 and p<0.001, respectively, compared to vehicle-control cells. (One-way ANOVA with Dunnett's multiple comparisons test).
(§4) Plate 5×10^5 human oral cancer cells SAS per 6-cm dish in 2 ml of culture medium and were grown overnight at 37° C. in a 5% CO2 incubator. The cells were incubated for 24 h with ginsenoside M1 (5˜20 μg/ml), ginsenoside Rh2 (5˜20 μg/ml) or vehicle. Each group contains a final DMSO concentration of 0.1%. Thereafter, the cell numbers were counted by Trypan blue exclusion method. […] The data were expressed as mean±SD; n=3. *, ** and *** indicate a significant difference at the level of p<0.05, p<0.01 and p<0.001, respectively, compared to vehicle-control cells. (One-way ANOVA with Dunnett's multiple comparisons test).

[5] = tested on: human oral cancer OECM-1 cells; assay: Viability of human oral cancer OECM-1 cells, Trypan blue exclusion; details: 5˜20 μg/ml, 24 h
Procedure: as §3, §4

[6] = tested on: normal human gingival epithelioid cell line SG; assay: Toxicity to normal human gingival epithelioid SG cells, Trypan blue exclusion; details: 20 μg/ml, 24 h
Procedure: Human normal human gingival epithelioid cell line SG cells were incubated for 24 h with ginsenoside M1 (5˜20 μg/ml), ginsenoside Rh2 (5˜20 μg/ml) or vehicle (0.1% DMSO). The live cell numbers were counted by Trypan blue exclusion method. The data were expressed as mean±SD; n=3. ** and *** indicate a significant difference at the level of p<0.01 and p<0.001, respectively, compared to vehicle-control cells. (One-way ANOVA with Dunnett's multiple comparisons test).
as §4, with “5×10^5 normal” for “5×10^5”, “gingival epithelioid cell line SG” for “oral cancer cells SAS”, “n=3.” for “n=3. *,”, “of” for “of p<0.05,”

Compound: N.N.[Cl][Pt][Cl] [CDDP, cistaplatin, reference compound]
- apoptotic DNA breaks in OECM-1 cells [1]: significantly induced
- cells in sub-G1 phase [2]: increased
- cells in G1 phase ([2]; vs control cells): increased
- percentage of cells in S and G2/M phase ([2]; vs control cells): decreasing
- percentage of OECM-1 cells with PI/Annexin V double positive staining [3]: significantly increased

Compound: CC(C)=CCC[C@](C)(O)[C@H]1CC[C@]2(C)[C@@H]1[C@H](O)C[C@@H]1[C@@]3(C)CC[C@H](O[C@@H]4O[C@H](CO)[C@@H](O)[C@H](O)[C@H]4O)C(C)(C)[C@@H]3CC[C@]12C [ginsenoside Rh2, reference compound]
- cell numbers of human oral cancer SAS cells [4]: dose-dependently inhibited
- cell numbers of human oral cancer OECM-1 cells [5]: dose-dependently inhibited
- toxicity to SG cells [6]: completely killed the SG cells
